Test results published in patent US6740760B2, “D-proline derivatives” (Hoffmann-La Roche Inc., priority 1997, dated 2004).

Experiments:
B. fragilis = details: disclosed in WO 97/10225; cited from earlier work

Row | Compound | melting point | antibacterial activity against B. fragilis (B. fragilis)
1 | O=C(O)[C@H]1CCCN1C(=O)Cc1ccc(CC(=O)N2CCC[C@@H]2C(=O)O)cc1 | 210 to 214 °C | 
2 | C[C@@H](CS)C(=O)N1CCC[C@@H]1C(=O)O [1-[(R)3-Mercapto-2-methyl-propionyl]-(R)-pyrrolidine-2-carboxylic acid] |  | antibacterial activity
3 | C[C@H](CS)C(=O)N1CCC[C@@H]1C(=O)O [1-[(S)3-Mercapto-2-methyl-propionyl]-(R)-pyrrolidine-2-carboxylic acid] |  | antibacterial activity
